Experimental findings from patent EP0162545A2, “Enhanced bioconversion processes” (BETZ EUROPE, INC., priority 1984, dated 1985) are described below.

As a reminder, the half-life is the time needed for the level to fall by half in the phase considered. Read a high half-life as slow loss.

Where two headings read alike, the source gives them in different places.

One series concerns E. coli K12 ATCC 25404. Nature of the series: Continuous culture (chemostat) biomass yield. The class given is cell-based, Escherichia coli. To be noted: for inhibition of growth at 5 ppm / inhibition of growth at 2 ppm / inhibition of growth at 1 ppm: Escherichia coli, read-out: % From Control. As for the experimental part:
Biomass determinations were by Millipore Filtration using Millipore type H.A. 0.45 µ filters. Samples were centrifuged @ 15,000 x for 10 min., supernatant was filtered through a dried and preweighed filter. The centrifuged pellet was then vortexed in 2 mL of D.I. water and filtered also. Samples were then dried overnight @ 105°C and re-weighed. Biomass was the weight of the dried filter less the tared filter weight.
Glucose determinations were carried out on the centrifuged reactor sample supernatants using glucose enzymatic assay (hexokinase and glucose 6-phosphate dehydrogenase) UV-15 Sigma Chemical Co., St. Louis, MO. (Assay set-up pamphlet accompanies kit). Spectrophotometric measurements were run on a Zeiss PM-6 Spektralphotometer, Carl Zeiss, 7082 Oberkochen, West Germany.
Continuous culture medium was composed of 5 g/1 glucose, 40 mL/1 25 X VBE, and 2.5 mL/1 trace mixture. Bulk medium composed of deionized H20 plus 25X VBE was steam sterilized for 45 min. @ 121°C. Trace mix was autoclaved separately and added aseptically. Glucose was filter sterilized and added last (aseptically).
Bioflo Model C32 Chemostat units (bioreactors) , New Brunswick Scientific, Edison NJ, with a working volume of 1400 mL were utilized for the continuous culture experimentation. pH control on the systems was maintained by Model 5997-20 Horizon pH Controllers. Ingold Sterilizable pH Electrodes, Type 465-35-K9, Andover, MA, were sterilized in place before each run. pH adjustment was by controller addition of sterile 2N NaOH upon demand.
Sterile chemostats vessels were filled to working volume with media seeded with 10 mL of 48 hr. E. coli K12 ATCC 25404 culture grown up overnight in nutrient broth (BBL, Cockeysville, MD) @ 37°C. Reactors were run for 72 hours in the batch mode @ 37°C, and then put into continuous flow. The reactors were run for a minimum of five reactor turnovers before initial sampling to insure a steady state. Sampling was then conducted at a maximum of once/reactor turnover, with a minimum number of 11 reactor turnovers per chemostat run. Both control and BNS containing chemostats were stripped, cleaned and the E. coli culture reestablished (as above) each time before either the BNS concentration or the dilution rate was increased. Eleven reactor turnovers is equivalent to 3.5 days at the highest dilution rate used (minimum time for a chemostat run). Uncoupler Addition to Continuous Culture
(§1) BNS stock was composed of 10% BNS, 5% Triton X-114 and 85% carbitol acetate. BNS was diluted in deionized water to the appropriate 10X concentration desired. Breakdown kinetics were measured in a deionized H20/BNS system by spectrophotometric measurement at 320 nm and a BNS half life was determined to be 7 hours. Continuous and separate pumping of uncoupler was by a Masterflex 7552-10 peristalic pump (Cole Parmer, Chicago, IL) through silicon tubing lines into the bioreactor. Feed flow was split 90% organic feed, 10% BNS feed for total flow. New uncoupler feed was made up daily from the previously mentioned stock, since there was only 10% of the original BNS concentration left before the new daily solution of BNS feed was begun. BNS dose of 1, 2 and 5 ppm was based on the total bulk feed. Reservoir solutions were mixed constantly on a Fisher versamix magnetic stir plate at a speed of 0.4/1.0 to prevent settling out of chemical.
Chemostat system parameters were set at pH - 7.0, temper, ature 37°C, aeration 2.0 standard litres per minute (SLPM) and agitation at 300 rpm for all experimentation.
Daily checks were made on system for pH, media flow, NaOH consumption, BNS flow, temperature; agitation speed and aeration rate. Mixed liquor glucose and gravimetric biomass determinations were performed at least 5 times per week. Periodic checks were also made on the organic strength of the influent medium, depending on the frequency of new media make-up.

A short description of series [1]: BNS breakdown kinetics in deionized water, spectrophotometric at 320 nm. It counts as physicochemical. On the procedure:
as §1

Take `O=[N+]([O-])C(Br)=Cc1ccccc1` [BNS, beta-bromo-beta-nitrostyrene]: the “Biomass Yield” value in the series with E. coli K12 ATCC 25404 (1.0 ppm BNS, Dilution Rate 0.068 hr.^-1) is given as 0.268 g cells/g substrate; in the series with E. coli K12 ATCC 25404 (1.0 ppm BNS, Dilution Rate 0.086 hr.^-1), 0.276 g cells/g substrate; in the series with E. coli K12 ATCC 25404 (1.0 ppm BNS, Dilution Rate 0.132 hr.^-1), 0.324 g cells/g substrate; with E. coli K12 ATCC 25404 (2.0 ppm BNS, Dilution Rate 0.066 hr.^-1) it was 0.273 g cells/g substrate; with E. coli K12 ATCC 25404 (2.0 ppm BNS, Dilution Rate 0.090 hr.^-1), 0.241 g cells/g substrate; in the series with E. coli K12 ATCC 25404 (2.0 ppm BNS, Dilution Rate 0.130 hr.^-1), 0.275 g cells/g substrate. The “Biomass Yield” value turned out to be 0.287 g cells/g substrate in the series on E. coli K12 ATCC 25404 (5.0 ppm BNS, Dilution Rate 0.070 hr.^-1); 0.237 g cells/g substrate in the series on E. coli K12 ATCC 25404 (5.0 ppm BNS, Dilution Rate 0.090 hr.^-1); 0.298 g cells/g substrate in the series on E. coli K12 ATCC 25404 (5.0 ppm BNS, Dilution Rate 0.131 hr.^-1). The inhibition of growth at 5 ppm worked out at 9.5% in the series with E. coli K12 ATCC 25404 (ATCC25404, 0.07 h, 5.0 ppm BNS, Dilution Rate 0.070 hr.^-1); 27.3% in the series on E. coli K12 ATCC 25404 (ATCC25404, 0.09 h, 5.0 ppm BNS, Dilution Rate 0.090 hr.^-1); 11.5% with E. coli K12 ATCC 25404 (ATCC25404, 5.0 ppm BNS, Dilution Rate 0.131 hr.^-1). For the same molecule, the inhibition of growth at 2 ppm in the series on E. coli K12 ATCC 25404 (ATCC25404, 0.09 h, 2.0 ppm BNS, Dilution Rate 0.090 hr.^-1) was found to be 26.1%; with E. coli K12 ATCC 25404 (ATCC25404, 0.13 h, 2.0 ppm BNS, Dilution Rate 0.130 hr.^-1), 18.3%; in the series with E. coli K12 ATCC 25404 (ATCC25404, 2.0 ppm BNS, Dilution Rate 0.066 hr.^-1), 13.3%. In addition, the inhibition of growth at 1 ppm with E. coli K12 ATCC 25404 (ATCC25404, 1.0 ppm BNS, Dilution Rate 0.068 hr.^-1) was 15.2%; with E. coli K12 ATCC 25404 (ATCC25404, 1.0 ppm BNS, Dilution Rate 0.086 hr.^-1), 15%; in the series on E. coli K12 ATCC 25404 (ATCC25404, 1.0 ppm BNS, Dilution Rate 0.132 hr.^-1) it was 3.9%. The half-life in series [1] (deionized water, deionized H20/BNS system, 320 nm) is 7 h. For the same molecule, in series [1] (diluted feed in deionized water, before the new daily solution), the “original BNS concentration left” value was found to be 10%.
